Results: ChEMBL document CHEMBL1201862, “PubChem BioAssay data set” (2004)
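Growth conditions: 96-well plates. Treatment: test compound, 48 hours, 5 concentrations. Analysis: linear interpolation between bracketing concentrations; unreached endpoints set to highest concentration. GI50 is the concentration that inhibits growth by half.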 Calls of active or inactive are those of the source. No stated cut-off is given here; in the data, active = GI50 up to about 1.1 µM and inactive = higher.

Key:
Test in all cases: NCI-60 cell line screen, 48 h
[1] = system: DU-145
[2] = system: Malme-3M
[3] = system: OVCAR-4
[4] = system: UACC-62
[5] = system: T47D
[6] = system: HT-29
[7] = system: NCI-H460
[8] = system: HCT-116
[9] = system: MDA-MB-231
[10] = system: OVCAR-8
[11] = system: A549
[12] = system: SF-295
[13] = system: HOP-62
[14] = system: SF-268
[15] = system: SK-MEL-5
[16] = system: MDA-MB-435
[17] = system: LOX IMVI
[18] = system: SK-MEL-28
[19] = system: ACHN
[20] = system: A498

With `COc1ccc(-c2nc(O)c3ccccc3n2)cc1OC` the GI50 [1] was > 100 µM (inactive), the GI50 [2] was > 100 µM (inactive) and the GI50 [3] was > 100 µM (inactive). The GI50 [4] was > 100 µM (inactive), the GI50 [5] was 30.3 µM (inactive) and the GI50 [6] was > 100 µM (inactive). The GI50 [7] was > 100 µM (inactive), the GI50 [8] was > 100 µM (inactive) and the GI50 [9] was 24.4 µM (inactive). For the same compound, the GI50 [10] was 24.4 µM (inactive), the GI50 [11] was 94.4 µM (inactive) and the GI50 [12] was 50.8 µM (inactive). For the same compound, the GI50 [13] was 33.8 µM (inactive), the GI50 [14] was 25.2 µM (inactive) and the GI50 [15] was > 100 µM (inactive). The GI50 [16] was > 100 µM (inactive).
In the case of `O=c1c2cc([N+](=O)[O-])cnc2sn1-c1ccc(Oc2ccccc2)cc1`, the GI50 [1] was 24.8 µM (inactive), the GI50 [2] was 21.7 µM (inactive) and the GI50 [3] was 25.8 µM (inactive). For the same compound, the GI50 [4] was 41.7 µM (inactive), the GI50 [5] was 10.8 µM (inactive) and the GI50 [6] was 62.5 µM (inactive). For the same compound, the GI50 [7] was 74.1 µM (inactive), the GI50 [17] was 44.9 µM (inactive) and the GI50 [8] was 25.2 µM (inactive). For the same compound, the GI50 [18] was 22.4 µM (inactive), the GI50 [9] was 22.1 µM (inactive) and the GI50 [10] was 82.8 µM (inactive). For the same compound, the GI50 [11] was > 100 µM (inactive), the GI50 [12] was 31 µM (inactive) and the GI50 [19] was 53.1 µM (inactive). For the same compound, the GI50 [13] was 34.2 µM (inactive), the GI50 [14] was 39.6 µM (inactive) and the GI50 [15] was 88.5 µM (inactive). The GI50 [16] was 34 µM (inactive).
With `NC1CC(=O)c2sccc21` (stereo unspecified) the GI50 [1] was > 100 µM (inactive), the GI50 [3] was > 100 µM (inactive) and the GI50 [4] was > 100 µM (inactive). The GI50 [5] was > 100 µM (inactive), the GI50 [6] was > 100 µM (inactive) and the GI50 [8] was > 100 µM (inactive). For the same compound, the GI50 [18] was > 100 µM (inactive), the GI50 [20] was > 100 µM (inactive) and the GI50 [9] was > 100 µM (inactive). The GI50 [10] was > 100 µM (inactive), the GI50 [11] was > 100 µM (inactive) and the GI50 [12] was > 100 µM (inactive). For the same compound, the GI50 [19] was > 100 µM (inactive), the GI50 [13] was > 100 µM (inactive) and the GI50 [14] was > 100 µM (inactive). The GI50 [15] was > 100 µM (inactive) and the GI50 [16] was > 100 µM (inactive).
In the case of `CN(C)CCCNC(=O)N/N=C/c1ccc([N+](=O)[O-])cc1`, the GI50 [1] was > 100 µM (inactive), the GI50 [2] was 40.2 µM (inactive) and the GI50 [4] was > 100 µM (inactive). For the same compound, the GI50 [5] was 86.1 µM (inactive), the GI50 [6] was > 100 µM (inactive) and the GI50 [7] was > 100 µM (inactive). The GI50 [8] was > 100 µM (inactive), the GI50 [18] was > 100 µM (inactive) and the GI50 [20] was 66.4 µM (inactive). The GI50 [9] was > 100 µM (inactive), the GI50 [10] was > 100 µM (inactive) and the GI50 [11] was > 100 µM (inactive). For the same compound, the GI50 [12] was 78.2 µM (inactive), the GI50 [19] was > 100 µM (inactive) and the GI50 [13] was > 100 µM (inactive). The GI50 [14] was > 100 µM (inactive), the GI50 [15] was > 100 µM (inactive) and the GI50 [16] was > 100 µM (inactive).
With `C=CC1(CCC(Br)C(C)(C)Cl)CO1` (stereo unspecified) the GI50 [1] was > 10 µM (inactive), the GI50 [2] was > 10 µM (inactive) and the GI50 [5] was > 10 µM (inactive). For the same compound, the GI50 [6] was > 10 µM (inactive), the GI50 [7] was > 10 µM (inactive) and the GI50 [8] was > 10 µM (inactive). For the same compound, the GI50 [18] was > 10 µM (inactive), the GI50 [20] was > 10 µM (inactive) and the GI50 [9] was > 10 µM (inactive). For the same compound, the GI50 [10] was > 10 µM (inactive), the GI50 [11] was > 10 µM (inactive) and the GI50 [12] was > 10 µM (inactive). The GI50 [19] was > 10 µM (inactive), the GI50 [13] was > 10 µM (inactive) and the GI50 [14] was > 10 µM (inactive). The GI50 [15] was > 10 µM (inactive) and the GI50 [16] was > 10 µM (inactive).
`O=C(c1ccccc1)N1OCCC1Nc1ccc(Br)cc1` (stereo unspecified) was tested, and the GI50 [1] was 6.24 µM (inactive), the GI50 [2] was 3.34 µM (inactive) and the GI50 [3] was > 10 µM (inactive). For the same compound, the GI50 [5] was > 10 µM (inactive), the GI50 [6] was 0.818 µM (active) and the GI50 [7] was 5.45 µM (inactive). The GI50 [17] was > 10 µM (inactive), the GI50 [8] was 4.25 µM (inactive) and the GI50 [18] was > 10 µM (inactive). For the same compound, the GI50 [9] was > 10 µM (inactive), the GI50 [10] was > 10 µM (inactive) and the GI50 [11] was 3.64 µM (inactive). The GI50 [12] was 2.08 µM (inactive), the GI50 [19] was 0.615 µM (active) and the GI50 [13] was 7.57 µM (inactive). For the same compound, the GI50 [14] was 5.21 µM (inactive), the GI50 [15] was 6.97 µM (inactive) and the GI50 [16] was 0.499 µM (active).
For `Oc1ccc(C(O)(c2ccccc2)c2ccccc2)c2ccccc12`, the GI50 [1] was 2.13 µM (inactive), the GI50 [2] was 10.2 µM (inactive) and the GI50 [3] was 5.75 µM (inactive). For the same compound, the GI50 [4] was 1.22 µM (inactive), the GI50 [5] was 2.77 µM (inactive) and the GI50 [6] was 2.77 µM (inactive). For the same compound, the GI50 [7] was 2.72 µM (inactive), the GI50 [17] was 1.25 µM (inactive) and the GI50 [8] was 2.1 µM (inactive). The GI50 [18] was 15 µM (inactive), the GI50 [9] was 1.79 µM (inactive) and the GI50 [10] was 2.42 µM (inactive). For the same compound, the GI50 [11] was 3.27 µM (inactive), the GI50 [12] was 2.9 µM (inactive) and the GI50 [19] was 1.77 µM (inactive). The GI50 [13] was 2.3 µM (inactive), the GI50 [14] was 2.4 µM (inactive) and the GI50 [15] was 2.67 µM (inactive). For the same compound, the GI50 [16] was 1.07 µM (active).
`C=CCN(C(=O)CNC(=O)C(F)(F)F)c1cc(OCc2ccccc2)c2c(c1)c(C)cn2S(=O)(=O)c1ccccc1` was tested, and the GI50 [1] was > 100 µM (inactive), the GI50 [2] was > 100 µM (inactive) and the GI50 [3] was 9.16 µM (inactive). For the same compound, the GI50 [4] was 6.76 µM (inactive), the GI50 [5] was 5.93 µM (inactive) and the GI50 [6] was > 100 µM (inactive). For the same compound, the GI50 [7] was > 30.5 µM (inactive), the GI50 [17] was 16 µM (inactive) and the GI50 [8] was 7.66 µM (inactive). The GI50 [18] was > 100 µM (inactive), the GI50 [9] was > 24.1 µM (inactive) and the GI50 [10] was > 26.8 µM (inactive). The GI50 [11] was 7.5 µM (inactive), the GI50 [12] was 23 µM (inactive) and the GI50 [19] was > 26 µM (inactive). For the same compound, the GI50 [13] was > 100 µM (inactive), the GI50 [14] was 6.59 µM (inactive) and the GI50 [15] was 24 µM (inactive). For the same compound, the GI50 [16] was 40.6 µM (inactive).
`SC1=NNC2(C(S)=N1)c1ccccc1-c1ccccc12` was tested, and the GI50 [1] was > 10 µM (inactive), the GI50 [2] was > 10 µM (inactive) and the GI50 [3] was > 10 µM (inactive). The GI50 [4] was > 10 µM (inactive), the GI50 [5] was 4.83 µM (inactive) and the GI50 [6] was > 10 µM (inactive). The GI50 [7] was > 10 µM (inactive), the GI50 [17] was > 10 µM (inactive) and the GI50 [20] was 0.697 µM (active). For the same compound, the GI50 [9] was > 10 µM (inactive), the GI50 [10] was > 10 µM (inactive) and the GI50 [11] was > 10 µM (inactive). The GI50 [13] was > 10 µM (inactive), the GI50 [14] was > 10 µM (inactive) and the GI50 [15] was > 10 µM (inactive).
For `COc1ccc2cc(/C=N\NC(=O)Nc3ccc([N+](=O)[O-])cc3)ccc2c1`, the GI50 [1] was 7.41 µM (inactive), the GI50 [2] was 12.3 µM (inactive) and the GI50 [3] was 5.04 µM (inactive). For the same compound, the GI50 [4] was 13.8 µM (inactive), the GI50 [5] was 14.2 µM (inactive) and the GI50 [6] was 11.5 µM (inactive). The GI50 [7] was 12.4 µM (inactive), the GI50 [17] was 12 µM (inactive) and the GI50 [8] was 11.6 µM (inactive). The GI50 [18] was 14.6 µM (inactive), the GI50 [9] was 13.9 µM (inactive) and the GI50 [10] was 11.7 µM (inactive). For the same compound, the GI50 [11] was 11.2 µM (inactive), the GI50 [12] was 13.8 µM (inactive) and the GI50 [19] was 13.9 µM (inactive). For the same compound, the GI50 [13] was 14.8 µM (inactive), the GI50 [14] was 12.8 µM (inactive) and the GI50 [15] was 11.7 µM (inactive). For the same compound, the GI50 [16] was 14.1 µM (inactive).
For `Nc1nc(=O)c2cc(NCc3ccc(C(=O)NC(CCC(=O)O)C(=O)O)cc3)ccc2[nH]1` (stereo unspecified), the GI50 [1] was > 100 µM (inactive), the GI50 [2] was > 100 µM (inactive) and the GI50 [3] was > 100 µM (inactive). For the same compound, the GI50 [4] was 45.9 µM (inactive), the GI50 [5] was > 100 µM (inactive) and the GI50 [6] was > 100 µM (inactive). The GI50 [7] was 50 µM (inactive), the GI50 [17] was 14.1 µM (inactive) and the GI50 [8] was > 100 µM (inactive). For the same compound, the GI50 [18] was > 100 µM (inactive), the GI50 [9] was > 100 µM (inactive) and the GI50 [10] was 68.2 µM (inactive). The GI50 [11] was 80.7 µM (inactive), the GI50 [12] was 61.8 µM (inactive) and the GI50 [19] was 4.31 µM (inactive). For the same compound, the GI50 [13] was > 100 µM (inactive), the GI50 [14] was 59 µM (inactive) and the GI50 [15] was > 100 µM (inactive). For the same compound, the GI50 [16] was > 100 µM (inactive).
